# Measured values: patent US20250084416A1, “TARGETING OF XKR8 IN THERAPIES” (University of Pittsburgh - Of the Commonwealth System of …, priority 2022, published 2025)
# Legend:
# [1] = system: luciferase in MC38-Luc cells; assay: In vitro luciferase gene knockdown; assay type: cell-based, murine; settings: 1 h pretreatment prior to siLUC NP transfection
# HUVECa and CT26 cells = assay: Transwell co-culture transcytosis (HUVECa upper, CT26 lower chamber); assay type: cell-based; settings: endocytosis inhibitor
# Method: To explore a potential role of transcytosis in tumor targeting, a co-culture experiment with HUVECa and CT26 cells using a Transwell plate was conducted.
# hXkr8 mRNA = assay: qRT-PCR of Xkr8 mRNA in cultured human tumor cells (HT-29, PANC-1); assay type: cell-based; settings: for Xkr8 mRNA expression: 24 h treatment
# Method: (§1) To examine the effect of different chemotherapeutic agents on the expression level of Xkr8 mRNA, CT26, Panc02, PANC-1 or HT29 cells were treated with various concentrations of FuOXP, DOX or PTX. Twenty-four h later, cells were collected and subjected to qRT-PCR of mXkr8 or hXkr8 as detailed below.
# (§2) To examine the impact of ActD treatment on the expression level of Xkr8 mRNA, CT26 or PANC-1 tumor cells were treated with FuOXP (10 μM) for 12 h followed by addition of ActD (2 μM). At 2 or 4 h following ActD treatment, cells were collected and subjected to qRT-PCR of Xkr8 mRNA as described below. In another study, cells were treated with NAC (2.5 mM) for 12 h followed by treatment with FuOXP, DOX or PTX for another 12 h. qRT-PCR of Xkr8 mRNA was then similarly performed.
# (§3) Tumor tissues or cells collected from the above experiments were subjected to RNA extraction by TRIzol™. cDNA was generated from the purified RNA using QuantiTect Reverse Transcription Kit (Qiagen, MD, USA) according to the manufacturer's instructions. Quantitative real-time PCR was performed using SYBR Green Mix on a 7900 HT PCR instrument (Applied Biosystems, MA, USA). Relative target mRNA levels were analyzed using delta-delta-Ct calculations and normalized to GAPDH.
# mXkr8 mRNA = assay: qRT-PCR of Xkr8 mRNA in cultured murine tumor cells (CT26, Panc02); assay type: cell-based; settings: for Xkr8 mRNA expression: 24 h treatment
# Method: as §1, §2, §3
# hXkr8 protein = assay: Western blot of hXkr8 protein in HT29 and PANC-1 cells; assay type: cell-based, human; settings: PANC-1 cells; NAC 12 h then drug 12 h
# Method: Analysis of hXkr8 protein level by Western blot: Cultured HT29 or PANC-1 cells received similar treatments as described above. Cells were then lysed with RIPA lysis buffer (Thermo Fisher Scientific, MA, USA) by gently shaking on ice for 30 min. After centrifugation at 12,300 RPM for 10 min, the supernatants were collected, and the concentrations of proteins were measured using Pierce BCA Protein Assay Kit (ThermoFisher Scientific, MA, USA). The protein samples were denatured by boiling for 5 min and loaded onto 10% SDS-PAGE gel for electrophoresis. The proteins in the gels were subsequently transferred onto PVDF membranes (Bio-Rad, CA, USA). The membranes were then incubated in blocking buffer (5% non-fat dry milk in TBST) for 1 h at RT, followed by incubation with anti-hXkr8 polyclonal antibody (ThermoFisher Scientific, MA, USA) in antibody dilution buffer (5% BSA in TBST, 1/2000 dilution) with gentle agitation overnight at 4° C. After washing with TBST for three times, the membranes were subsequently incubated with the secondary HRP-linked goat anti-rabbit IgG antibody (Cell Signaling Technology, MA, USA) for 1 h at RT. After another three washes with TBST, the membranes were incubated with Pierce™ ECL Western Blotting Substrate (ThermoFisher Scientific, MA, USA) for 1 min. Protein expression was normalized against β-Tubulin expression.
# CT26 tumor cells = assay: Surface PS on CT26 tumor cells and EVs (Annexin V flow); assay type: cell-based, murine; settings: CT26 tumor cells in vitro
# Method: Effect of Xkr8 knockdown on the PS expression levels of tumor cells and EVs following FuOXP treatment: CT26 cancer cells were first treated with siXkr8 NPs for 72 h and then treated with FuOXP/siXkr8-coloaded NPs for another 24 h. EVs were isolated from culture medium using gradient ultra-centrifugation according to a previously established protocol^48. Briefly, culture medium was collected and centrifuged for 20 min at 1,800 RPM at 4° C. to clear dead cells and cell debris. The supernatant was then transferred to a polycarbonate ultracentrifuge tube and centrifuged at 9,000 RPM for 35 min at 4° C. to collect larger EVs. The supernatant was centrifuged again at 30,000 RPM for 80 min at 4° C. and the pellet was resuspended in 100 μL of PBS for smaller EVs collection. The levels of surface PS on tumor cells and EVs were analyzed by flow using BV421-labeled Annexin V. For detection of EVs by flow cytometry, electronic “Height” (-H) parameter rather than the “Area” (-A) parameter was used to allow optimal signal detection.
compound,measurement,setting,value
O=C(N/N=C/c1ccc(O)c(O)c1)c1cc2ccccc2cc1O [dynasore],efficiency of silence after inhibitor pretreatment,[1],drastically attenuated
same,effect on transcytosis-mediated transfection of CT26 cells,HUVECa and CT26 cells,significantly inhibited
"CC(=O)O[C@H]1C(=O)[C@@]2(C)[C@H]([C@H](OC(=O)c3ccccc3)[C@]3(O)C[C@H](OC(=O)[C@H](O)[C@@H](NC(=O)c4ccccc4)c4ccccc4)C(C)=C1C3(C)C)[C@]1(OC(C)=O)CO[C@@H]1C[C@@H]2O [PTX, paclitaxel]",Xkr8 mRNA expression,hXkr8 mRNA; HT-29 cells,Induction
same,Xkr8 mRNA expression,hXkr8 mRNA; PANC-1 cells,Induction
same,Xkr8 mRNA expression,mXkr8 mRNA; CT26 cells,Induction
same,Xkr8 mRNA expression,mXkr8 mRNA; Panc02 cells,Induction
"COc1cccc2c1C(=O)c1c(O)c3c(c(O)c1C2=O)C[C@@](O)(C(=O)CO)C[C@@H]3O[C@H]1C[C@H](N)[C@H](O)[C@H](C)O1 [DOX, doxorubicin]",Xkr8 mRNA expression,hXkr8 mRNA; HT-29 cells,Induction
same,Xkr8 mRNA expression,hXkr8 mRNA; PANC-1 cells,Induction
same,Xkr8 mRNA expression,mXkr8 mRNA; CT26 cells,Induction
same,Xkr8 mRNA expression,mXkr8 mRNA; Panc02 cells,Induction
C=C1[C@@H](C)[C@H]2[C@H](Cc3ccccc3)NC(=O)[C@]23[C@H](OC(C)=O)/C=C/[C@@](C)(O)C(=O)[C@@H](C)C/C=C/[C@H]3[C@@H]1O [cytochalasin D],efficiency of silence after inhibitor pretreatment,[1],drastically attenuated
"CC(=O)N[C@@H](CS)C(=O)O [NAC, N-acetylcysteine]",effect of pretreatment on Xkr8 protein induction by the 3 drugs,hXkr8 protein,partially attenuated
same,effect of pretreatment on Xkr8 mRNA induction by the 3 drugs,"hXkr8 mRNA; PANC-1 cells, NAC 12 h then drug 12 h",partially attenuated
same,effect of pretreatment on Xkr8 mRNA induction by the 3 drugs,"mXkr8 mRNA; CT26 cells, NAC 12 h then drug 12 h",partially attenuated
N=C(N)NC(=O)c1nc(Cl)c(N)nc1N [amiloride],efficiency of silence after inhibitor pretreatment,[1],drastically attenuated
"siXkr8: Murine Xkr8 siRNA, Seq ID No 1 and 2, siRNA ID 164623 (chain 1 GGCACAAAUUUUAUGCCUG; chain 2 CAGGCAUAAAAUUUGUGCC; RNA, backbone not given here; further chemistry not fully specified; listed as Mus musculus)",level of surface PS (Annexin V+ cells),CT26 tumor cells,almost abolished
CCCCC[C@@H](O)[C@H]1C(=O)O[C@H](C)[C@@H](O)/C=C/C=C/C=C/C=C/C=C(\C)[C@@H](O)C[C@H](O)C[C@H](O)C[C@H](O)C[C@H](O)C[C@H](O)C[C@@H]1O [filipin],efficiency of silence after inhibitor pretreatment,[1],drastically attenuated
CN(C)CCCN1c2ccccc2Sc2ccc(Cl)cc21 [chlorpromazine],efficiency of silence after inhibitor pretreatment,[1],drastically attenuated
